ChEMBL document CHEMBL2010748, “Structure-Activity Relationship Studies of HIV-1 Integrase Oligonucleotide Inhibitors” (ACS Med Chem Lett, 2011)

Target: Human immunodeficiency virus type 1 integrase (Human immunodeficiency virus 1, UniProt Q7ZJM1)
Test: Inhibition of Human immunodeficiency virus 1 integrase 3'-processing activity expressed in Escherichia coli using 21-mer DNA and Mg2+ after 2 hrs by polyacrylamide gel electrophoresis

Chain of Human immunodeficiency virus type 1 integrase (Q7ZJM1 whole entry): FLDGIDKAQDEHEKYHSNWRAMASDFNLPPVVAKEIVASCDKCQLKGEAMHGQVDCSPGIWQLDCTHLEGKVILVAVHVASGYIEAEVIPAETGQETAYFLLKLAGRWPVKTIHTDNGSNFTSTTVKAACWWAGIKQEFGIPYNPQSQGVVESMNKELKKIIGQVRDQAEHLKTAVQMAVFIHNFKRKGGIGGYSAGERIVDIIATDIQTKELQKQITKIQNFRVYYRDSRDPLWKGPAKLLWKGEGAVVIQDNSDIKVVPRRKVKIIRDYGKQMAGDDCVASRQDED

Row | IC50 [nM] | SMILES
1 | 50 | Cc1cn([C@H]2C[C@H](OP(=O)(O)OC[C@H]3O[C@@H](n4cc(C)c(=O)[nH]c4=O)C[C@@H]3OP(=O)(O)OC[C@H]3O[C@@H](n4cc(C)c(=O)[nH]c4=O)C[C@@H]3OP(=O)(O)OC[C@H]3O[C@@H](n4cnc5c(=O)[nH]c(N)nc54)C[C@@H]3OP(=O)(O)OC[C@H]3O[C@@H](n4cc(C)c(=O)[nH]c4=O)C[C@@H]3OP(=O)(O)OC[C@H]3O[C@@H](n4cnc5c(=O)[nH]c(N)nc54)C[C@@H]3OP(=O)(O)OC[C@H]3O[C@@H](n4cc(C)c(=O)[nH]c4=O)C[C@@H]3OP(=O)(O)OCCCCCCNC(=S)Nc3ccc(-c4c5cc(Br)c(=O)c(Br)c-5oc5c(Br)c(O)c(Br)cc45)c(C(=O)O)c3)[C@@H](COP(=O)(O)O[C@H]3C[C@H](n4cc(C)c(=O)[nH]c4=O)O[C@@H]3COP(=O)(O)O[C@H]3C[C@H](n4cc(C)c(=O)[nH]c4=O)O[C@@H]3COP(=O)(O)O[C@H]3C[C@H](n4cnc5c(=O)[nH]c(N)nc54)O[C@@H]3COP(=O)(O)O[C@H]3C[C@H](n4cnc5c(=O)[nH]c(N)nc54)O[C@@H]3CO)O2)c(=O)[nH]c1=O
2 | 320 | Cc1cn([C@H]2C[C@H](OP(=O)(O)OC[C@H]3O[C@@H](n4cc(C)c(=O)[nH]c4=O)C[C@@H]3OP(=O)(O)OC[C@H]3O[C@@H](n4cc(C)c(=O)[nH]c4=O)C[C@@H]3OP(=O)(O)OC[C@H]3O[C@@H](n4cnc5c(=O)[nH]c(N)nc54)C[C@@H]3OP(=O)(O)OC[C@H]3O[C@@H](n4cc(C)c(=O)[nH]c4=O)C[C@@H]3OP(=O)(O)OC[C@H]3O[C@@H](n4cnc5c(=O)[nH]c(N)nc54)C[C@@H]3OP(=O)(O)OC[C@H]3O[C@@H](n4cc(C)c(=O)[nH]c4=O)C[C@@H]3O)[C@@H](COP(=O)(O)O[C@H]3C[C@H](n4cc(C)c(=O)[nH]c4=O)O[C@@H]3COP(=O)(O)O[C@H]3C[C@H](n4cc(C)c(=O)[nH]c4=O)O[C@@H]3COP(=O)(O)O[C@H]3C[C@H](n4cnc5c(=O)[nH]c(N)nc54)O[C@@H]3COP(=O)(O)O[C@H]3C[C@H](n4cnc5c(=O)[nH]c(N)nc54)O[C@@H]3COP(=O)(O)O[C@@H]3C[C@@H](CO)N(C(=O)CCCCCNC(=O)c4ccc(C(=O)O)c(-c5c6ccc(=O)cc-6oc6cc(O)ccc56)c4)C3)O2)c(=O)[nH]c1=O
3 | 310 | Cc1cn([C@H]2C[C@H](OP(=O)(O)OC[C@H]3O[C@@H](n4cc(C)c(=O)[nH]c4=O)C[C@@H]3OP(=O)(O)OC[C@H]3O[C@@H](n4cc(C)c(=O)[nH]c4=O)C[C@@H]3OP(=O)(O)OC[C@H]3O[C@@H](n4cnc5c(=O)[nH]c(N)nc54)C[C@@H]3OP(=O)(O)OC[C@H]3O[C@@H](n4cc(C)c(=O)[nH]c4=O)C[C@@H]3OP(=O)(O)OC[C@H]3O[C@@H](n4cnc5c(=O)[nH]c(N)nc54)C[C@@H]3OP(=O)(O)OC[C@H]3O[C@@H](n4cc(C)c(=O)[nH]c4=O)C[C@@H]3O)[C@@H](COP(=O)(O)O[C@H]3C[C@H](n4cc(C)c(=O)[nH]c4=O)O[C@@H]3COP(=O)(O)O[C@H]3C[C@H](n4cc(C)c(=O)[nH]c4=O)O[C@@H]3COP(=O)(O)O[C@H]3C[C@H](n4cnc5c(=O)[nH]c(N)nc54)O[C@@H]3COP(=O)(O)O[C@H]3C[C@H](n4cnc5c(=O)[nH]c(N)nc54)O[C@@H]3COP(=O)(O)OCCCCCCNC(=O)c3ccc(C(=O)O)c(-c4c5ccc(=O)cc-5oc5cc(O)ccc45)c3)O2)c(=O)[nH]c1=O
4 | 315 | Cc1cn([C@H]2C[C@H](OP(=O)(O)OC[C@H]3O[C@@H](n4cc(C)c(=O)[nH]c4=O)C[C@@H]3OP(=O)(O)OC[C@H]3O[C@@H](n4cc(C)c(=O)[nH]c4=O)C[C@@H]3OP(=O)(O)OC[C@H]3O[C@@H](n4cnc5c(=O)[nH]c(N)nc54)C[C@@H]3OP(=O)(O)OC[C@H]3O[C@@H](n4cc(C)c(=O)[nH]c4=O)C[C@@H]3OP(=O)(O)OC[C@H]3O[C@@H](n4cnc5c(=O)[nH]c(N)nc54)C[C@@H]3OP(=O)(O)OC[C@H]3O[C@@H](n4cc(C)c(=O)[nH]c4=O)C[C@@H]3OP(=O)(O)OCCCCCCNC(=S)Nc3ccc(-c4c5ccc(=O)cc-5oc5cc(O)ccc45)c(C(=O)O)c3)[C@@H](COP(=O)(O)O[C@H]3C[C@H](n4cc(C)c(=O)[nH]c4=O)O[C@@H]3COP(=O)(O)O[C@H]3C[C@H](n4cc(C)c(=O)[nH]c4=O)O[C@@H]3COP(=O)(O)O[C@H]3C[C@H](n4cnc5c(=O)[nH]c(N)nc54)O[C@@H]3COP(=O)(O)O[C@H]3C[C@H](n4cnc5c(=O)[nH]c(N)nc54)O[C@@H]3CO)O2)c(=O)[nH]c1=O
5 | 55 | Cc1cn([C@H]2C[C@H](OP(=O)(O)OC[C@H]3O[C@@H](n4cc(C)c(=O)[nH]c4=O)C[C@@H]3OP(=O)(O)OC[C@H]3O[C@@H](n4cc(C)c(=O)[nH]c4=O)C[C@@H]3OP(=O)(O)OC[C@H]3O[C@@H](n4cnc5c(=O)[nH]c(N)nc54)C[C@@H]3OP(=O)(O)OC[C@H]3O[C@@H](n4cc(C)c(=O)[nH]c4=O)C[C@@H]3OP(=O)(O)OC[C@H]3O[C@@H](n4cnc5c(=O)[nH]c(N)nc54)C[C@@H]3OP(=O)(O)OC[C@H]3O[C@@H](n4cc(C)c(=O)[nH]c4=O)C[C@@H]3O)[C@@H](COP(=O)(O)O[C@H]3C[C@H](n4cc(C)c(=O)[nH]c4=O)O[C@@H]3COP(=O)(O)O[C@H]3C[C@H](n4cc(C)c(=O)[nH]c4=O)O[C@@H]3COP(=O)(O)O[C@H]3C[C@H](n4cnc5c(=O)[nH]c(N)nc54)O[C@@H]3COP(=O)(O)O[C@H]3C[C@H](n4cnc5c(=O)[nH]c(N)nc54)O[C@@H]3COP(=O)(O)OCCCCCCNC(=O)c3cc(Cl)c(C(=O)O)c(-c4c5cc(Cl)c(=O)c(Cl)c-5oc5c(Cl)c(O)c(Cl)cc45)c3Cl)O2)c(=O)[nH]c1=O
6 | 52 | Cc1cn([C@H]2C[C@H](OP(=O)(O)OC[C@H]3O[C@@H](n4cc(C)c(=O)[nH]c4=O)C[C@@H]3OP(=O)(O)OC[C@H]3O[C@@H](n4cc(C)c(=O)[nH]c4=O)C[C@@H]3OP(=O)(O)OC[C@H]3O[C@@H](n4cnc5c(=O)[nH]c(N)nc54)C[C@@H]3OP(=O)(O)OC[C@H]3O[C@@H](n4cc(C)c(=O)[nH]c4=O)C[C@@H]3OP(=O)(O)OC[C@H]3O[C@@H](n4cnc5c(=O)[nH]c(N)nc54)C[C@@H]3OP(=O)(O)OC[C@H]3O[C@@H](n4cc(C)c(=O)[nH]c4=O)C[C@@H]3O)[C@@H](COP(=O)(O)O[C@H]3C[C@H](n4cc(C)c(=O)[nH]c4=O)O[C@@H]3COP(=O)(O)O[C@H]3C[C@H](n4cc(C)c(=O)[nH]c4=O)O[C@@H]3COP(=O)(O)O[C@H]3C[C@H](n4cnc5c(=O)[nH]c(N)nc54)O[C@@H]3COP(=O)(O)O[C@H]3C[C@H](n4cnc5c(=O)[nH]c(N)nc54)O[C@@H]3COP(=O)(O)OCCCCCCNC(=O)c3cc(Cl)c(-c4c5cc(Cl)c(O)c(Cl)c5nc5c(Cl)c(O)c(Cl)cc45)c(C(=O)O)c3Cl)O2)c(=O)[nH]c1=O
7 | 290 | Cc1cn([C@H]2C[C@H](OP(=O)(O)OC[C@H]3O[C@@H](n4cc(C)c(=O)[nH]c4=O)C[C@@H]3OP(=O)(O)OC[C@H]3O[C@@H](n4cc(C)c(=O)[nH]c4=O)C[C@@H]3OP(=O)(O)OC[C@H]3O[C@@H](n4cnc5c(=O)[nH]c(N)nc54)C[C@@H]3OP(=O)(O)OC[C@H]3O[C@@H](n4cc(C)c(=O)[nH]c4=O)C[C@@H]3OP(=O)(O)OC[C@H]3O[C@@H](n4cnc5c(=O)[nH]c(N)nc54)C[C@@H]3OP(=O)(O)OC[C@H]3O[C@@H](n4cc(C)c(=O)[nH]c4=O)C[C@@H]3O)[C@@H](COP(=O)(O)O[C@H]3C[C@H](n4cc(C)c(=O)[nH]c4=O)O[C@@H]3COP(=O)(O)O[C@H]3C[C@H](n4cc(C)c(=O)[nH]c4=O)O[C@@H]3COP(=O)(O)O[C@H]3C[C@H](n4cnc5c(=O)[nH]c(N)nc54)O[C@@H]3COP(=O)(O)O[C@H]3C[C@H](n4cnc5c(=O)[nH]c(N)nc54)O[C@@H]3COP(=O)(O)OCCCCCCNC(=O)c3cc(Cl)c(C(=O)O)c(-c4c5cc(Cl)c(=O)cc-5oc5cc(O)c(Cl)cc45)c3Cl)O2)c(=O)[nH]c1=O
8 | 310 | COc1cc2c(-c3cc(C(=O)NCCCCCCOP(=O)(O)OC[C@H]4O[C@@H](n5cnc6c(=O)[nH]c(N)nc65)C[C@@H]4OP(=O)(O)OC[C@H]4O[C@@H](n5cnc6c(=O)[nH]c(N)nc65)C[C@@H]4OP(=O)(O)OC[C@H]4O[C@@H](n5cc(C)c(=O)[nH]c5=O)C[C@@H]4OP(=O)(O)OC[C@H]4O[C@@H](n5cc(C)c(=O)[nH]c5=O)C[C@@H]4OP(=O)(O)OC[C@H]4O[C@@H](n5cc(C)c(=O)[nH]c5=O)C[C@@H]4OP(=O)(O)OC[C@H]4O[C@@H](n5cc(C)c(=O)[nH]c5=O)C[C@@H]4OP(=O)(O)OC[C@H]4O[C@@H](n5cc(C)c(=O)[nH]c5=O)C[C@@H]4OP(=O)(O)OC[C@H]4O[C@@H](n5cnc6c(=O)[nH]c(N)nc65)C[C@@H]4OP(=O)(O)OC[C@H]4O[C@@H](n5cc(C)c(=O)[nH]c5=O)C[C@@H]4OP(=O)(O)OC[C@H]4O[C@@H](n5cnc6c(=O)[nH]c(N)nc65)C[C@@H]4OP(=O)(O)OC[C@H]4O[C@@H](n5cc(C)c(=O)[nH]c5=O)C[C@@H]4O)ccc3C(=O)O)c3cc(OC)c(=O)c(Cl)c-3oc2c(Cl)c1O
9 | 200 | CCCCCCCC/C=C\CCCCCCCC(=O)NCCCOCC(O)COP(=O)(O)O[C@H]1C[C@H](n2cc(C)c(=O)[nH]c2=O)O[C@@H]1COP(=O)(O)O[C@H]1C[C@H](n2cnc3c(=O)[nH]c(N)nc32)O[C@@H]1COP(=O)(O)O[C@H]1C[C@H](n2cc(C)c(=O)[nH]c2=O)O[C@@H]1COP(=O)(O)O[C@H]1C[C@H](n2cnc3c(=O)[nH]c(N)nc32)O[C@@H]1COP(=O)(O)O[C@H]1C[C@H](n2cc(C)c(=O)[nH]c2=O)O[C@@H]1COP(=O)(O)O[C@H]1C[C@H](n2cc(C)c(=O)[nH]c2=O)O[C@@H]1COP(=O)(O)O[C@H]1C[C@H](n2cc(C)c(=O)[nH]c2=O)O[C@@H]1COP(=O)(O)O[C@H]1C[C@H](n2cc(C)c(=O)[nH]c2=O)O[C@@H]1COP(=O)(O)O[C@H]1C[C@H](n2cc(C)c(=O)[nH]c2=O)O[C@@H]1COP(=O)(O)O[C@H]1C[C@H](n2cnc3c(=O)[nH]c(N)nc32)O[C@@H]1COP(=O)(O)O[C@H]1C[C@H](n2cnc3c(=O)[nH]c(N)nc32)O[C@@H]1CO (some centres undefined)
